According to patent publication US7541353B2, “Compounds for the treatment of hepatitis C” (Bristol-Myers Squibb Company, priority 2007, dated 2009):

How the values were obtained:
HCV NS5B = target: T1, HCV NS5B (Hepatitis C virus genotype 1b, UniProt Q9WMX2); assay: Modified HCV NS5B RdRp enzyme assay (preincubation protocol); type: biochemical
T1 construct: The cDNA encoding the NS5B protein of HCV, genotype 1b; made in house; host or cells: E. coli BL21(DE3)
Description: HCV NS5B RdRp cloning, expression, and purification. The cDNA encoding the NS5B protein of HCV, genotype 1b, was cloned into the pET21a expression vector. The protein was expressed with an 18 amino acid C-terminal truncation to enhance the solubility. The E. coli competent cell line BL21(DE3) was used for expression of the protein. Cultures were grown at 37° C. for ˜4 hours until the cultures reached an optical density of 2.0 at 600 nm. The cultures were cooled to 20° C. and induced with 1 mM IPTG. Fresh ampicillin was added to a final concentration of 50 μg/ml and the cells were grown overnight at 20° C.
Cell pellets (3L) were lysed for purification to yield 15-24 mgs of purified NS5B. The lysis buffer consisted of 20 mM Tris-HCl, pH 7.4, 500 mM NaCl, 0.5% triton X-100, 1 mM DTT, 1 mM EDTA, 20% glycerol, 0.5 mg/ml lysozyme, 10 mM MgCl2, 15 ug/ml deoxyribonuclease I, and Complete™ protease inhibitor tablets (Roche). After addition of the lysis buffer, frozen cell pellets were resuspended using a tissue homogenizer. To reduce the viscosity of the sample, aliquots of the lysate were sonicated on ice using a microtip attached to a Branson sonicator. The sonicated lysate was centrifuged at 100,000×g for 1 hr at 4° C. and filtered through a 0.2 μm filter unit (Corning).
The protein was purified using two sequential chromatography steps: Heparin sepharose CL-6B and polyU sepharose 4B (Pharmacia). The chromatography buffers were identical to the lysis buffer but contained no lysozyme, deoxyribonuclease I, MgCl2 or protease inhibitor and the NaCl concentration of the buffer was adjusted according to the requirements for charging the protein onto the column. Each column was eluted with a NaCl gradient which varied in length from 5-50 column volumes depending on the column type. After the final chromatography step, the resulting purity of the enzyme is >90% based on SDS-PAGE analysis. The enzyme was aliquoted and stored at −80° C.
Standard HCV NS5B RdRp enzyme assay. HCV RdRp genotype 1b assays were run in a final volume of 60 μl in 96 well plates (Corning 3600). The assay buffer is composed of 20 mM Hepes, pH 7.5, 2.5 mM KCl, 2.5 mM MgCl2, 1 mM DTT, 1.6 U RNAse inhibitor (Promega N2515), 0.01 mg/ml BSA (Sigma B6917), and 2% glycerol. All compounds were serially diluted (3-fold) in DMSO and diluted further in water such that the final concentration of DMSO in the assay was 2%. HCV RdRp genotype 1b enzyme was used at a final concentration of 28 nM. A polyA template was used at 6 nM, and a biotinylated oligo-dT12 primer was used at 180 nM final concentration. Template was obtained commercially (Amersham 27-4110). Biotinylated primer was prepared by Sigma Genosys. 3H-UTP was used at 0.6 μCi (0.29 μM total UTP). Reactions were initiated by the addition of enzyme, incubated at 30° C. for 60 min, and stopped by adding 25 μl of 50 mM EDTA containing SPA beads (4 μg/μl, Amersham RPNQ 0007). Plates were read on a Packard Top Count NXT after >1 hr incubation at room temperature.
Modified HCV NS5B RdRp enzyme assay. A modified enzyme assay was performed essentially as described for the standard enzyme assay except for the following: The biotinylated oligo dT12 primer was precaptured on streptavidin-coated SPA beads by mixing primer and beads in assay buffer and incubating at room temperature for one hour. Unbound primer was removed after centrifugation. The primer-bound beads were resuspended in 20 mM Hepes buffer, pH 7.5 and used in the assay at final concentrations of 20 nM primer and 0.67 μg/μl beads. Order of addition in the assay: enzyme (1.75 nM) was added to diluted compound followed by the addition of a mixture of template (0.36 nM), 3H-UTP (0.6 μCi, 0.29 μM), and primer-bound beads, to initiate the reaction; concentrations given are final. Reactions were allowed to proceed for 4 hours at 30° C.
IC50 values for compounds were determined using seven different [I]. […]

HCV replicon cells = assay: HCV replicon FRET assay; type: cell-based; details: Hepatitis C virus
Description: FRET Assay Preparation. The HCV FRET screening assay was performed in 96-well cell culture plates. The FRET peptide (Anaspec, Inc.) (Taliani et al., Anal. Biochem. 1996, 240, 60-67) contains a fluorescence donor, EDANS, near one end of the peptide and an acceptor, DABCYL, near the other end. The fluorescence of the peptide is quenched by […] resonance energy transfer (RET) between the donor and the acceptor, but as the NS3 protease cleaves the peptide the products are released from RET quenching and the fluorescence of the donor becomes apparent. The assay reagent was made as follows: 5× cell Luciferase cell culture lysis reagent from Promega (#E153A) diluted to 1× with dH2O, NaCl added to 150 mM final, the FRET peptide diluted to 20 μM final from a 2 mM stock.
To prepare plates, HCV replicon cells, with or without a Renilla luciferase reporter gene, were trypsinized and plated in a 96-well plate with titrated test compounds added in columns 3 through 12; columns 1 and 2 contained a control compound (HCV control inhibitor), and the bottom row contained cells with DMSO only. The plates were then placed in a CO2 incubator at 37° C.
Assays. Subsequent to addition of the test compounds described above (FRET Assay Preparation), at various times the plate was removed and Alamar blue solution (Trek Diagnostics, #00-100) was added to measure cellular toxicity. After reading in a Cytoflour 4000 instrument (PE Biosystems), plates were rinsed with PBS and then used for FRET assay by the addition of 30 ul of the FRET peptide assay reagent described above (FRET Assay Preparation) per well. The plate was then placed into the Cytoflour 4000 instrument which had been set to 340 excite/490 emission, automatic mode for up to 20 cycles and the plate read in a kinetic mode. Typically, the signal to noise using an endpoint analysis after the reads was at least three-fold. Alternatively, after Alamar blue reading, plates were rinsed with PBS, then used for luciferase assay using the Promega Dual-Glo Luciferase Assay System or the Promega EnduRen Live Cell Substrate assay.
Compound analysis was performed by quantification of the relative HCV replicon inhibition and the relative cytotoxicity values. To calculate cytoxicity values, the average Alamar Blue fluorescence signals from the control wells were set as 100% non-toxic. The individual signals in each of the compound test wells were then divided by the average control signal and multiplied by 100% to determine […]. To calculate the HCV replicon inhibition values, an average background value was obtained from the two wells containing the highest amount of HCV control inhibitor at the end of the assay period. These numbers were similar to those obtained from naïve Huh-7 cells. The background numbers were then subtracted from the average signal obtained from the control wells and this number was used as 100% activity. The individual signals in each of the compound test wells were then divided by the averaged control values after background subtraction and multiplied by 100% to determine percent activity. EC50 values were calculated as the concentration which caused a 50% reduction in FRET or luciferase activity. The two numbers generated for the compound plate, percent cytoxicity and percent activity, were used to determine compounds of interest for further analysis.

T1 sequence (Q9WMX2 2420-2992): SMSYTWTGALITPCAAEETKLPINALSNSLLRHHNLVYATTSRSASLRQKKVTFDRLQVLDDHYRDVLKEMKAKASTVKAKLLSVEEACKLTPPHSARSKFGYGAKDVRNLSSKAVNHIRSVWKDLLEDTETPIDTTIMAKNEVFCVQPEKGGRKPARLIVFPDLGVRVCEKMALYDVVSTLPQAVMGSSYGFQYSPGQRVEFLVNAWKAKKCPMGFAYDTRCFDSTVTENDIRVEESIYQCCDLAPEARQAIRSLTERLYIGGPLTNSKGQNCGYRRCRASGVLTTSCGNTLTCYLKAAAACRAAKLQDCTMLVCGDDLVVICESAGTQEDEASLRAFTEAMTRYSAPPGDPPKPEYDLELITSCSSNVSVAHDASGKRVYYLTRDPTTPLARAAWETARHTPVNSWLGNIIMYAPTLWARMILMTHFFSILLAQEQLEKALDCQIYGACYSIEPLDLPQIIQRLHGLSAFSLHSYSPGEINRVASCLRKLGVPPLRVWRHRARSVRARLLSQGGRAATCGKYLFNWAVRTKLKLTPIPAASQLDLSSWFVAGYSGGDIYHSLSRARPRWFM

SMILES | IC50 (HCV NS5B) [nM] | EC50 (HCV replicon cells) [nM]
COc1ccc2c(c1)C1CC1(C(=O)N1C3CCC1COC3)Cn1c-2c(C2CCCCC2)c2ccc(C(=O)NS(=O)(=O)N(C)C)cc21 (stereo not shown) | 4.58 to 500 | 4.58 to 500
COc1ccc2c(c1)C1CC1(C(=O)N1C3CCC1CC(O)C3)Cn1c-2c(C2CCCCC2)c2ccc(C(=O)NS(=O)(=O)N(C)C)cc21 (stereo not shown) | 4.58 to 500 | 4.58 to 500
COc1ccc2c(c1)C1CC1(C(=O)N1C3CCC1CC(N1CCCCC1)C3)Cn1c-2c(C2CCCCC2)c2ccc(C(=O)NS(=O)(=O)N(C)C)cc21 (stereo not shown) | 4.58 to 500 | 4.58 to 500
COc1ccc2c(c1)C1CC1(C(=O)N1C3CCC1CC(C)(O)C3)Cn1c-2c(C2CCCCC2)c2ccc(C(=O)NS(=O)(=O)N(C)C)cc21 (stereo not shown) | 4.58 to 500 | 4.58 to 500
COc1ccc2c(c1)C1CC1(C(=O)N1C3CCC1CC(N(C)C)C3)Cn1c-2c(C2CCCCC2)c2ccc(C(=O)NS(=O)(=O)N(C)C)cc21 (stereo not shown) | 4.58 to 500 | 4.58 to 500
COc1ccc2c(c1)C1CC1(C(=O)N1C3CCC1CC(N(C)Cc1ccccc1)C3)Cn1c-2c(C2CCCCC2)c2ccc(C(=O)NS(=O)(=O)N(C)C)cc21 (stereo not shown) | 4.58 to 500 | 4.58 to 500
COc1ccc2c(c1)C1CC1(C(=O)N1C3CCC1CC(N(CCN(C)C)Cc1ccccc1)C3)Cn1c-2c(C2CCCCC2)c2ccc(C(=O)NS(=O)(=O)N(C)C)cc21 (stereo not shown) | 4.58 to 500 | 4.58 to 500
COc1ccc2c(c1)C1CC1(C(=O)N1C3CCC1CC(NCc1ccccc1)C3)Cn1c-2c(C2CCCCC2)c2ccc(C(=O)NS(=O)(=O)N(C)C)cc21 (stereo not shown) | 4.58 to 500 | 4.58 to 500
CCNC1CC2CCC(C1)N2C(=O)C12CC1c1cc(OC)ccc1-c1c(C3CCCCC3)c3ccc(C(=O)NS(=O)(=O)N(C)C)cc3n1C2 (stereo not shown) | 4.58 to 500 | 4.58 to 500
COc1ccc2c(c1)C1CC1(C(=O)N1C3CCC1CC(NCCN(C)C)C3)Cn1c-2c(C2CCCCC2)c2ccc(C(=O)NS(=O)(=O)N(C)C)cc21 (stereo not shown) | 4.58 to 500 | 4.58 to 500
COc1ccc2c(c1)C1CC1(C(=O)N1C3CCC1CC3)Cn1c-2c(C2CCCCC2)c2ccc(C(=O)NS(=O)(=O)N3CCN(C)CC3)cc21 (stereo not shown) | 4.58 to 500 | 4.58 to 500
COc1ccc2c(c1)C1CC1(C(=O)N1C3CCC1CC(O)(C(C)(C)C)C3)Cn1c-2c(C2CCCCC2)c2ccc(C(=O)NS(=O)(=O)N(C)C)cc21 (stereo not shown) | 4.58 to 500 | 4.58 to 500
COc1ccc2c(c1)C1CC1(C(=O)N1C3CCC1CC(N(CCN(C)C)Cc1ccccc1)C3)Cn1c-2c(C2CCCCC2)c2ccc(C(=O)NS(C)(=O)=O)cc21 (stereo not shown) | 4.58 to 500 | 4.58 to 500
COc1ccc2c(c1)C1CC1(C(=O)N1C3CCC1CC(C)(O)C3)Cn1c-2c(C2CCCCC2)c2ccc(C(=O)NS(=O)(=O)C(C)C)cc21 (stereo not shown) | 4.58 to 500 | 4.58 to 500
COc1ccc2c(c1)C1CC1(C(=O)N1C3CCC1CC(C)(O)C3)Cn1c-2c(C2CCCCC2)c2ccc(C(=O)NS(=O)(=O)N3CCC3)cc21 (stereo not shown) | 4.58 to 500 | 4.58 to 500
COc1ccc2c(c1)C1CC1(C(=O)N1C3CCC1CC(N(CCN(C)C)Cc1ccccc1)C3)Cn1c-2c(C2CCCCC2)c2ccc(C(=O)NS(=O)(=O)N3CCC3)cc21 (stereo not shown) | 4.58 to 500 | 4.58 to 500
COc1ccc2c(c1)C1CC1(C(=O)N1C3CCC1CC(NCc1ccccc1)C3)Cn1c-2c(C2CCCCC2)c2ccc(C(=O)NS(=O)(=O)N3CCC3)cc21 (stereo not shown) | 4.58 to 500 | 4.58 to 500
COc1ccc2c(c1)C1CC1(C(=O)N1C3CCC1CC(N(C)Cc1ccccc1)C3)Cn1c-2c(C2CCCCC2)c2ccc(C(=O)NS(=O)(=O)N3CCC3)cc21 (stereo not shown) | 4.58 to 500 | 4.58 to 500
COc1ccc2c(c1)C1CC1(C(=O)N1C3CCC1CC(=O)C3)Cn1c-2c(C2CCCCC2)c2ccc(C(=O)NS(=O)(=O)C3CC3)cc21 (stereo not shown) | 4.58 to 500 | 
COc1ccc2c(c1)C1CC1(C(=O)N1C3CCC[C@@H]1COC3)Cn1c-2c(C2CCCCC2)c2ccc(C(=O)NS(=O)(=O)C(C)C)cc21 (stereo partly shown) | 4.58 to 500 | 4.58 to 500
COc1ccc2c(c1)C1CC1(C(=O)N1C3CCC[C@@H]1COC3)Cn1c-2c(C2CCCCC2)c2ccc(C(=O)NS(=O)(=O)C3CCCC3)cc21 (stereo partly shown) | 4.58 to 500 | 4.58 to 500
COc1ccc2c(c1)C1CC1(C(=O)N1C3COCC1COC3)Cn1c-2c(C2CCCCC2)c2ccc(C(=O)NS(=O)(=O)C3CCCCC3)cc21 (stereo not shown) | 4.58 to 500 | 4.58 to 500
COc1ccc2c(c1)C1CC1(C(=O)N1C3CCC[C@@H]1COC3)Cn1c-2c(C2CCCCC2)c2ccc(C(=O)NS(=O)(=O)CC(F)(F)F)cc21 (stereo partly shown) | 4.58 to 500 | 4.58 to 500
COc1ccc2c(c1)C1CC1(C(=O)N1C3COCC1COC3)Cn1c-2c(C2CCCCC2)c2ccc(C(=O)NS(=O)(=O)CCC(F)(F)F)cc21 (stereo not shown) | 4.58 to 500 | 4.58 to 500
COc1ccc2c(c1)C1CC1(C(=O)N1C3COCC1COC3)Cn1c-2c(C2CCCCC2)c2ccc(C(=O)NS(=O)(=O)C3CCCC3)cc21 (stereo not shown) | 4.58 to 500 | 4.58 to 500
COc1ccc2c(c1)C1CC1(C(=O)N1C3COCC1COC3)Cn1c-2c(C2CCCCC2)c2ccc(C(=O)NS(=O)(=O)CC(F)(F)F)cc21 (stereo not shown) | 4.58 to 500 | 4.58 to 500
COc1ccc2c(c1)C1CC1(C(=O)N1C3CCCC1COC3)Cn1c-2c(C2CCCCC2)c2ccc(C(=O)NS(=O)(=O)CCC(F)(F)F)cc21 (stereo not shown) | 4.58 to 500 | 4.58 to 500
COc1ccc2c(c1)C1CC1(C(=O)N1C3CCCC1COC3)Cn1c-2c(C2CCCCC2)c2ccc(C(=O)NS(=O)(=O)C3CCC3)cc21 (stereo not shown) | 4.58 to 500 | 4.58 to 500
